Experimental data reported in ChEMBL document CHEMBL5053556, “Design, Synthesis, and Biological Evaluation of a Novel Series of Teriflunomide Derivatives as Potent Human Dihydroorotate Dehydrogenase Inhibitors for Malignancy Treatment” (J Med Chem, 2021).
≈ marks a conversion by molar mass, not a printed value.

Assays:
HCT-116 = assay: Antiproliferative activity against human HCT-116 cells assessed as cell growth inhibition incubated for 96 hrs by MTT assay; format: functional, cell-based; conditions: HCT-116, 96 h
A549 = assay: Antiproliferative activity against human A549 cells assessed as cell growth inhibition incubated for 96 hrs by MTT assay; format: functional, cell-based; conditions: A549, 96 h
Raji [1] = assay: Antiproliferative activity against human Raji cells assessed as cell growth inhibition incubated for 96 hrs by MTT assay; format: functional, cell-based
K562 = assay: Antiproliferative activity against human K562 cells assessed as cell growth inhibition incubated for 96 hrs by MTT assay; format: functional, cell-based; conditions: K562, 96 h
A-375 = assay: Antiproliferative activity against human A-375 cells assessed as cell growth inhibition incubated for 96 hrs by MTT assay; format: functional, cell-based; conditions: A-375, 96 h
SK-MEL-28 = assay: Antiproliferative activity against human SK-MEL-28 cells assessed as cell growth inhibition incubated for 96 hrs by MTT assay; format: functional, cell-based; conditions: SK-MEL-28, 96 h
L02 = assay: cells; format: ADME, cell-based; conditions: Homo sapiens, L02, 96 h
Description: Cytotoxicity against human L02 cells assessed as cell growth inhibition incubated for 96 hrs by MTT assay

[2] = biological target: T1, Dihydroorotate dehydrogenase (quinone), mitochondrial (Homo sapiens, UniProt Q02127); conditions: dose 100.0 nM, time 30.0 min
[3] = biological target: T1, Dihydroorotate dehydrogenase (quinone), mitochondrial
Description: Inhibition of human DHODH using dihydroorotate substrate preincubated for 30 mins followed by substrate addition by DCIP based microplate reader analysis

physchem = conditions: aqueous
Description: Aqueous solubility of compound by UPLC method

in vitro [4] = conditions: human, L02 cells and Raji cells
Description: Selectivity index, ratio of IC50 for human L02 cells to IC50 for human Raji cells

[5] = Plasma protein binding in rat at 0.1 uM incubated for 5 hrs by LC-MS analysis; format: ADME, cell-free; conditions: read-out: PPB (converted)
[6] = Plasma protein binding in rat at 1 uM incubated for 5 hrs by LC-MS analysis; format: ADME, cell-free; conditions: read-out: PPB (converted)
[7] = Plasma protein binding in rat at 10 uM incubated for 5 hrs by LC-MS analysis; format: ADME, cell-free; conditions: read-out: PPB (converted)
[8] = Microsomal stability in human liver microsomes assessed as half life at 1 uM measured upto 120 mins in presence of NADPH by LC-MS analysis; format: ADME, Microsome
[9] = Microsomal stability in rat liver microsomes assessed as half life at 1 uM measured upto 120 mins in presence of NADPH by LC-MS analysis; format: ADME, Microsome
[10] = Microsomal stability in mouse liver microsomes assessed as half life at 1 uM measured upto 120 mins in presence of NADPH by LC-MS analysis; format: ADME, Microsome
[11] = Cmax in Sprague-Dawley rat at 15 mg/kg, po measured after 48 hrs by LC-MS analysis; format: ADME, organism-based; set-up: dose 15 mg/kg, time 48 hrs, route po; conditions: in vivo
[12] = Tmax in Sprague-Dawley rat at 15 mg/kg, po measured after 48 hrs by LC-MS analysis; format: ADME, organism-based; conditions: in vivo
[13] = Half life in Sprague-Dawley rat at 5 mg/kg, iv measured after 48 hrs by LC-MS analysis; format: ADME, organism-based; conditions: in vivo
[14] = Half life in Sprague-Dawley rat at 15 mg/kg, po measured after 48 hrs by LC-MS analysis; format: ADME, organism-based; conditions: in vivo
[15] = Clearance in Sprague-Dawley rat at 5 mg/kg, iv measured after 48 hrs by LC-MS analysis; format: ADME, organism-based; conditions: Sprague-Dawley, in vivo
[16] = Clearance in Sprague-Dawley rat at 15 mg/kg, po measured after 48 hrs by LC-MS analysis; format: ADME, organism-based; conditions: in vivo
[17] = AUC(0 to t) in Sprague-Dawley rat at 5 mg/kg, iv measured after 48 hrs by LC-MS analysis; format: ADME, organism-based; set-up: time 48 hrs, dose 5 mg/kg, route iv; conditions: Sprague-Dawley, in vivo
[18] = AUC(0 to t) in Sprague-Dawley rat at 15 mg/kg, po measured after 48 hrs by LC-MS analysis; format: ADME, organism-based; set-up: dose 15 mg/kg, time 48 hrs, route po; conditions: in vivo
[19] = Oral bioavailability in Sprague-Dawley rat at 15 mg/kg measured after 48 hrs by LC-MS analysis; format: ADME, organism-based; conditions: in vivo
[20] = Acute toxicity in BALB/c mouse assessed effect on body weight at 400 mg/kg, po; format: organism-based; conditions: in vivo
[21] = Acute toxicity in BALB/c mouse assessed change in behavior at 400 mg/kg, po; format: organism-based; conditions: in vivo
[22] = Acute toxicity in BALB/c mouse assessed effect on feeding at 400 mg/kg, po; format: organism-based; conditions: in vivo
THP-1 = assay: Antiproliferative activity against human THP-1 cells assessed as cell growth inhibition incubated for 96 hrs by MTT assay; format: functional, cell-based; conditions: THP-1, 96 h
MV4-11 = assay: Antiproliferative activity against human MV4-11 cells assessed as cell growth inhibition incubated for 96 hrs by MTT assay; format: functional, cell-based; conditions: MV4-11, 96 h
HL-60 = assay: Antiproliferative activity against human HL-60 cells assessed as cell growth inhibition incubated for 96 hrs by MTT assay; format: functional, cell-based; conditions: HL-60, 96 h
HEL = assay: Antiproliferative activity against human HEL cells assessed as cell growth inhibition incubated for 96 hrs by MTT assay; format: functional, cell-based
SUD4 = assay: Antiproliferative activity against human SU-DHL-4 cells assessed as cell growth inhibition incubated for 96 hrs by MTT assay; format: functional, cell-based; conditions: SU-DHL-4, 96 h
SU-DHL-6 = assay: Antiproliferative activity against human SU-DHL-6 cells assessed as cell growth inhibition incubated for 96 hrs by MTT assay; format: functional, cell-based; conditions: SU-DHL-6, 96 h
Daudi = assay: Antiproliferative activity against human Daudi cells assessed as cell growth inhibition incubated for 96 hrs by MTT assay; format: functional, cell-based
Raji [23] = assay: Antitumor activity against human Raji cells xenografted in NOD-SCID mouse assessed as tumor growth inhibition at 40 mg/kg, po administered for 25 days; format: functional; conditions: 600 h, time 25 day, read-out: TGI
Mus musculus [24] = assay: Toxicity in NOD-SCID mouse xenografted with human Raji cells assessed as mortality at 40 mg/kg, po administered for 25 days; format: organism-based; conditions: in vivo, 600 h, time 25 day
Mus musculus [25] = assay: Toxicity in NOD-SCID mouse xenografted with human Raji cells assessed as change in ALT level at 40 mg/kg, po administered for 25 days; format: organism-based; conditions: in vivo, 600 h, time 25 day
Mus musculus [26] = assay: Toxicity in NOD-SCID mouse xenografted with human Raji cells assessed as change in AST level at 40 mg/kg, po administered for 25 days; format: organism-based; conditions: in vivo, 600 h, time 25 day
Mus musculus [27] = assay: Toxicity in NOD-SCID mouse xenografted with human Raji cells assessed as change in uric acid level at 40 mg/kg, po administered for 25 days; format: organism-based; conditions: in vivo, 600 h, time 25 day
Mus musculus [28] = assay: Toxicity in NOD-SCID mouse xenografted with human Raji cells assessed as change in UREAL at 40 mg/kg, po administered for 25 days; format: organism-based; conditions: in vivo, 600 h, time 25 day
[29] = Acute toxicity in BALB/c mouse assessed as effect on liver at 400 mg/kg, po measured on day 14 by H and E staining based assay; format: organism-based; conditions: in vivo, 336 h, time 14 day
[30] = Acute toxicity in BALB/c mouse assessed as effect on lung at 400 mg/kg, po measured on day 14 by H and E staining based assay; format: organism-based; conditions: in vivo, 336 h, time 14 day
[31] = Acute toxicity in BALB/c mouse assessed as effect on kidney at 400 mg/kg, po measured on day 14 by H and E staining based assay; format: organism-based; conditions: in vivo, 336 h, time 14 day
[32] = Acute toxicity in BALB/c mouse assessed as effect on heart at 400 mg/kg, po measured on day 14 by H and E staining based assay; format: organism-based; conditions: in vivo, 336 h, time 14 day
[33] = Acute toxicity in BALB/c mouse assessed as effect on spleen at 400 mg/kg, po measured on day 14 by H and E staining based assay; format: organism-based; conditions: in vivo, 336 h, time 14 day
in vitro [34] = conditions: human, Caco-2
Description: Apparent permeability across apical to basolateral side in human Caco-2 cells incubated for 90 mins by LC-MS analysis

in vitro [35] = conditions: human, Caco-2; remark: listed apart in the source
Description: Apparent permeability across basolateral to apical side in human Caco-2 cells incubated for 90 mins by LC-MS analysis

in vitro [36] = conditions: human, Caco-2; remark: listed apart in the source
Description: Efflux ratio of apparent permeability across basolateral to apical side over apical to basolateral side in human Caco-2 cells

T1 sequence (Q02127 whole entry): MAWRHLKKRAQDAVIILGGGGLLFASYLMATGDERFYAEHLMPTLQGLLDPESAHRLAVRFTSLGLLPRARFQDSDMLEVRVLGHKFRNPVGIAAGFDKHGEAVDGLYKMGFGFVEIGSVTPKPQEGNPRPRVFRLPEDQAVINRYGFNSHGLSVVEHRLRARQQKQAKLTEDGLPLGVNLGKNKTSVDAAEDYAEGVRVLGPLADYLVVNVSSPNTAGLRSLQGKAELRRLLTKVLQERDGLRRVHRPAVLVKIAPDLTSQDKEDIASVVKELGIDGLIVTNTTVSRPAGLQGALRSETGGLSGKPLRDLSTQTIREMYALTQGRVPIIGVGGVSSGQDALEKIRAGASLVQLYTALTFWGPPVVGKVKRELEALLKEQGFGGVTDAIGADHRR

COc1cccc(-c2cc(F)c(Nc3ncccc3C(=O)O)c(F)c2)c1 [ASLAN-003]
IC50 (HCT-116): 5100 nM
IC50 (A549): 900 nM
IC50 (Raji [1]): 300 nM
IC50 (K562): 2700 nM
IC50 (A-375): 700 nM
IC50 (SK-MEL-28): 1300 nM
IC50 (L02): 487 nM
inhibition [2]: 66.8%

COc1cc(NC(=O)/C(C#N)=C(/C)O)c(F)cc1C(=O)Nc1c(F)cccc1Br
IC50 [3]: 29.5 nM
inhibition [2]: 78.5%

C/C(O)=C(\C#N)C(=O)Nc1ccc(C(=O)Nc2c(F)cccc2F)c(OC(C)C)c1
inhibition [2]: 53.4%

C/C(O)=C(\C#N)C(=O)Nc1cc(O[C@@H](C)C(F)(F)F)c(C(=O)Nc2c(F)cccc2Br)cc1F
IC50 [3]: 6.8 nM
IC50 (Raji [1]): 13.9 nM
IC50 (L02): 526 nM
inhibition [2]: 93.1%
solubility (physchem): 1700 µg/mL (≈ 3.1 mM)
selectivity ratio (in vitro [4]): 37.7

C/C(O)=C(\C#N)C(=O)Nc1cc(OC(C)C)c(C(=O)Nc2c(F)cccc2Cl)cc1F
IC50 [3]: 22.4 nM
IC50 (HCT-116): 7300 nM
IC50 (A549): 900 nM
IC50 (Raji [1]): 300 nM
IC50 (K562): 2300 nM
IC50 (A-375): 1100 nM
IC50 (SK-MEL-28): 300 nM
inhibition [2]: 70.7%
solubility (physchem): 465 µg/mL (≈ 1.03 mM)

C/C(O)=C(\C#N)C(=O)Nc1cc(OC(C)C)c(C(=O)Nc2ccccc2F)cc1F
inhibition [2]: 23%

C/C(O)=C(\C#N)C(=O)Nc1cc(O[C@@H](C)C(F)(F)F)c(C(=O)Nc2c(F)cccc2Cl)cc1F
IC50 [3]: 6.9 nM
IC50 (Raji [1]): 13.7 nM
IC50 (L02): 511 nM
fraction unbound at 5 h, 0.1 µM [5]: 0.278
fraction unbound at 5 h, 1 µM [6]: 0.057
fraction unbound at 5 h, 10 µM [7]: 0.017
half-life at 1 µM [8]: 2.31 h
half-life at 1 µM [9]: 0.77 h
half-life at 1 µM [10]: 2.46 h
Cmax [11]: 1320 ng/mL
Tmax [12]: 12 h
half-life [13]: 4.6 h
half-life [14]: 8.7 h
clearance [15]: 5 mL/min/kg
CL/F [16]: 11.7 mL/min/kg
AUC(0-t) at 48 h [17]: 21500 ng·h/mL
AUC(0-t) at 48 h [18]: 21100 ng·h/mL
bioavailability [19]: 32.8%
Activity [20]: Non-Toxic
Activity [21]: Non-Toxic
Activity [22]: Non-Toxic
IC50 (THP-1): 20 nM
IC50 (MV4-11): 20 nM
IC50 (HL-60): 20 nM
IC50 (HEL): 20 nM
IC50 (SUD4): 20 nM
IC50 (SU-DHL-6): 20 nM
IC50 (Daudi): 20 nM
inhibition in vivo at 40 mg/kg (Raji [23]): 73.1%
Activity (Mus musculus [24]): Non-Toxic
Activity (Mus musculus [25]): Non-Toxic
Activity (Mus musculus [26]): Non-Toxic
Activity (Mus musculus [27]): Non-Toxic
Activity (Mus musculus [28]): Non-Toxic
Activity [29]: Non-Toxic
Activity [30]: Non-Toxic
Activity [31]: Non-Toxic
Activity [32]: Non-Toxic
Activity [33]: Non-Toxic
inhibition [2]: 93.6%
solubility (physchem): 5200 µg/mL (≈ 10.3 mM)
selectivity ratio (in vitro [4]): 37.2
Papp A→B at 1.5 h (in vitro [34]): 0.29 ×10⁻⁶ cm/s
Papp B→A at 1.5 h (in vitro [35]): 2.04 ×10⁻⁶ cm/s
efflux ratio (in vitro [36]): 7
